From patent EP0001503A1, “Antithrombotic compositions containing benzisothiazolones” (BEECHAM GROUP PLC, priority 1977, dated 1979)
Counter-ions that a name gives are not always drawn. Marks after values point to notes of the source that are not given here.

How the values were obtained:
[1] = test system: platelet aggregation (collagen); experiment: Inhibition of collagen-induced platelet aggregation, guinea pig ex vivo (turbidimetric, PRP); format: in vivo; conditions: p.o.
Experimental: (§1) These compounds were tested for inhibition of platelet aggregation alone and in combination with certain anti-inflammatory agents, in the guinea pig ex vivo by the following method: • Ten male guinea pigs weighing 250-300 g were orally dosed 1% methyl cellulose (5 ml/kg) in which the compound under test was suspended. Ten control animals were given methyl cellulose alone. […] Platelet-rich- plasma (PRP) was prepared from each blood sample by centrifigation at 450 g to 5 min. The platelet concentration in each sample or PRP was adjusted with auto- logous platelet-poor-plasma to give a count of […] PRP. Aggregation was measured turbido- metrically (G.V.R. Born, 1962, Nature, 194, 927-929) at 39° using a Bryston aggregometer coupled to a penrecorder. The concentration of callogen producing approximately 50% maximal aggregation and the concentration of ADP producing first-phase aggregation were compared in PRP samples from control and drug treated animals.
(§2) In the tables the dose ratio represents the ratio of the concentration of aggregating agent to cause aggregation in PRP from drug-treated animals to the concentration of aggregating agent to cause aggregation in PRP from control animals.

[2] = test system: platelet aggregation (ADP); experiment: Inhibition of ADP-induced platelet aggregation, guinea pig ex vivo (turbidimetric, PRP); format: in vivo; conditions: p.o.
Experimental: as §1, §2

[3] = Table 2, 2 h, mmol(mg)/kg: Aspirin 0.15 (27), Compound B 0.08 (22), combination 0.15 (27)+0.08 (22)
[4] = Table 3, 2 h, mmol(mg)/kg: Indomethacin 0.003 (1), Compound B 0.08 (22), combination 0.003 (1)+0.08 (22)
[5] = Table 2, ADP 0.5μM, 2 h, mmol(mg)/kg: Aspirin 0.15 (27), Compound B 0.08 (22), combination 0.15 (27)+0.08 (22)
[6] = Table 3, ADP 0.5µM, 2 h, mmol(mg)/kg: Indomethacin 0.003 (1), Compound B 0.08 (22), combination 0.003 (1)+0.08 (22)
[7] = Table 5, 2 h, mmol(mg)/kg: Aspirin 0.15 (27), Compound D 0.08 (31), combination 0.08 (31)+0.15 (27)
[8] = Table 6, 2 h, mmol(mg)/kg: Aspirin 0.15 (27), Compound D 0.15 (59), Compound D Aspirinate Salt 0.15 (88)
[9] = Table 5, ADP 0.5µM, 2 h, mmol(mg)/kg: Aspirin 0.15 (27), Compound D 0.08 (31), combination 0.08 (31)+0.15 (27)
[10] = Table 6, ADP 0.5µM, 2 h, mmol(mg)/kg: Aspirin 0.15 (27), Compound D 0.15 (59), Compound D Aspirinate Salt 0.15 (88)
[11] = Table 1, PRP 2 h after dosing, mmol(mg)/kg: Aspirin 0.15 (27), Compound A 0.08 (20), combination 0.15 (27)+0.08 (20)
[12] = Table 1, ADP 0.5μM, 2 h, mmol(mg)/kg: Aspirin 0.15 (27), Compound A 0.08 (20), combination 0.15 (27)+0.08 (20)
[13] = Table 1, 2 h, mmol(mg)/kg: Aspirin 0.15 (27), Compound A 0.08 (20), combination 0.15 (27)+0.08 (20)
[14] = Table 4, 2 h, mmol(mg)/kg: Aspirin 0.15 (27), Compound C 0.6 (217), combination 0.15 (27)+0.6 (217)
[15] = Table 4, ADP 0.5μM, 2 h, mmol(mg)/kg: Aspirin 0.15 (27), Compound C 0.6 (217), combination 0.15 (27)+0.6 (217)

SMILES: O=c1c2ccccc2sn1CCCN1CCCCC1 [Compound B, 2-[3-(1-piperidyl)propyl]-1,2-benzisothiazol-3-one]
- Dose-ratio vs. Coll. [1, 3]: 9.0*
- Dose-ratio vs. Coll. [1, 4]: 9.0*
- % Inhibition of ADP (0.5µM) [2, 5]: 57* %
- Dose-ratio vs. ADP [2, 3]: 1.7*
- % Inhibition of ADP (0.5µM) [2, 6]: 57* %
- Dose-ratio vs. ADP [2, 4]: 1.7*

SMILES: COc1cc2sn(CCCCN3CC4CCC(CC4)C3)c(=O)c2cc1OC [Compound D, 2-[4-(3-azabicyclo[3.2.2]non-3-yl)butyl]-5,6-dimethoxy-1,2-benzisothiazol-3-one]
- Dose-ratio vs. Coll. [1, 7]: 5.4*
- Dose-ratio vs. Coll. [1, 8]: >15.4*
- % Inhibition of ADP (0.5µM) [2, 9]: 86* %
- Dose-ratio vs. ADP [2, 7]: 2.6*
- % Inhibition of ADP (0.5µM) [2, 10]: 61* %
- Dose-ratio vs. ADP [2, 8]: 3.2*

SMILES: O=c1c2ccccc2sn1CCN1CCCCC1 [Compound A, 2-[2-(1-piperidyl)ethyl] 1,2-benzisothiazol-3-one]
- Dose-ratio vs. Coll. [1, 11]: 8.3*
- % Inhibition of ADP (0.5µM) [2, 12]: 26%
- % Inhibition of ADP 1μM [2, 13]: 0%
- Dose-ratio vs. ADP [2, 11]: 1.4*

SMILES: COc1cc2sn(CCCCN3CC4CCC(CC4)C3)c(=O)c2cc1OC [Compound D Aspirinate Salt, Aspirin salt of 2-(4-(3-azabicyclo[3.2.2.]non-3-yl)butyl)-5,6-dimethoxy-1,2-benzisothiazol-3-one]
- Dose-ratio vs. Coll. [1, 8]: >57*
- % Inhibition of ADP (0.5µM) [2, 10]: 91* %
- Dose-ratio vs. ADP [2, 8]: 4.6*

SMILES: COc1ccc2c(c1)c(CC(=O)O)c(C)n2C(=O)c1ccc(Cl)cc1 [Indo-methacin, Indomethacin, reference compound]
- Dose-ratio vs. Coll. [1, 4]: 1.7*
- % Inhibition of ADP (0.5µM) [2, 6]: 0%
- Dose-ratio vs. ADP [2, 4]: 1.1

SMILES: CC(=O)Oc1ccccc1C(=O)O [Aspirin, aspirin, reference compound]
- Dose-ratio vs. Coll. [1, 11]: 2.2*
- Dose-ratio vs. Coll. [1, 3]: 2.2*
- Dose-ratio vs. Coll. [1, 14]: 2.2*
- Dose-ratio vs. Coll. [1, 7]: 2.2*
- Dose-ratio vs. Coll. [1, 8]: 2.2*
- % Inhibition of ADP (0.5µM) [2, 12]: 16%
- % Inhibition of ADP 1μM [2, 13]: 0%
- Dose-ratio vs. ADP [2, 11]: 1.3
- % Inhibition of ADP (0.5µM) [2, 5]: 0%
- Dose-ratio vs. ADP [2, 3]: 1.3
- % Inhibition of ADP (0.5µM) [2, 15]: 0%
- Dose-ratio vs. ADP [2, 14]: 1.3
- % Inhibition of ADP (0.5µM) [2, 9]: 0%
- Dose-ratio vs. ADP [2, 7]: 1.3
- % Inhibition of ADP (0.5µM) [2, 10]: 0%
- Dose-ratio vs. ADP [2, 8]: 1.3

SMILES: COc1cc2sn(CCN3CC4CCC(CC4)C3)c(=O)c2cc1OC [Compound C, 2-[2-(3-azabicyclo[3.2.2]non-3-yl)ethyl)-5,6-dimethoxy-1,2-benzisothiazol-3-one]
- Dose-ratio vs. Coll. [1, 14]: >13.9*
- % Inhibition of ADP (0.5µM) [2, 15]: 92* %
- Dose-ratio vs. ADP [2, 14]: 3.3*
